Assay results reported in patent US10710994B2, “Oxadiazole transient receptor potential channel inhibitors” (Genentech, Inc., priority 2018, dated 2020).
Read-outs that look alike come from different tables or passages of the source.

Target: human TRPA1 channel (Homo sapiens (Human), UniProt O75762)
Test: hTRPA1 CHO Ca2+ FLIPR Tetra assay: block of cinnamaldehyde induced calcium influx
Assay type: cell-based
Conditions: CHO cells expressing TRPA1, Hill coefficient fixed to 1.5
Procedure, shortened: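 TRPA1-expressing CHO cells loaded with calcium indicator dye (1 h 37° C, then 15 min room temperature) in HBSS/20 mM HEPES pH 7.4/0.02% BSA. IC50 from fits with fixed Hill coefficient.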

[1] = read-out: hTRPA1 IC50 90 min, 90 minutes incubation with compound before cinnamaldehyde (about EC80)
[2] = read-out: hTRPA1 IC50 10 min, 10 minutes incubation with compound before cinnamaldehyde (about EC80)
[3] = hTRPA1 IC50 10 min, 10 minutes incubation with compound before cinnamaldehyde (about EC80)
[4] = hTRPA1 IC50 90 min, 90 minutes incubation with compound before cinnamaldehyde (about EC80)

human TRPA1 channel, sequence (O75762 whole entry): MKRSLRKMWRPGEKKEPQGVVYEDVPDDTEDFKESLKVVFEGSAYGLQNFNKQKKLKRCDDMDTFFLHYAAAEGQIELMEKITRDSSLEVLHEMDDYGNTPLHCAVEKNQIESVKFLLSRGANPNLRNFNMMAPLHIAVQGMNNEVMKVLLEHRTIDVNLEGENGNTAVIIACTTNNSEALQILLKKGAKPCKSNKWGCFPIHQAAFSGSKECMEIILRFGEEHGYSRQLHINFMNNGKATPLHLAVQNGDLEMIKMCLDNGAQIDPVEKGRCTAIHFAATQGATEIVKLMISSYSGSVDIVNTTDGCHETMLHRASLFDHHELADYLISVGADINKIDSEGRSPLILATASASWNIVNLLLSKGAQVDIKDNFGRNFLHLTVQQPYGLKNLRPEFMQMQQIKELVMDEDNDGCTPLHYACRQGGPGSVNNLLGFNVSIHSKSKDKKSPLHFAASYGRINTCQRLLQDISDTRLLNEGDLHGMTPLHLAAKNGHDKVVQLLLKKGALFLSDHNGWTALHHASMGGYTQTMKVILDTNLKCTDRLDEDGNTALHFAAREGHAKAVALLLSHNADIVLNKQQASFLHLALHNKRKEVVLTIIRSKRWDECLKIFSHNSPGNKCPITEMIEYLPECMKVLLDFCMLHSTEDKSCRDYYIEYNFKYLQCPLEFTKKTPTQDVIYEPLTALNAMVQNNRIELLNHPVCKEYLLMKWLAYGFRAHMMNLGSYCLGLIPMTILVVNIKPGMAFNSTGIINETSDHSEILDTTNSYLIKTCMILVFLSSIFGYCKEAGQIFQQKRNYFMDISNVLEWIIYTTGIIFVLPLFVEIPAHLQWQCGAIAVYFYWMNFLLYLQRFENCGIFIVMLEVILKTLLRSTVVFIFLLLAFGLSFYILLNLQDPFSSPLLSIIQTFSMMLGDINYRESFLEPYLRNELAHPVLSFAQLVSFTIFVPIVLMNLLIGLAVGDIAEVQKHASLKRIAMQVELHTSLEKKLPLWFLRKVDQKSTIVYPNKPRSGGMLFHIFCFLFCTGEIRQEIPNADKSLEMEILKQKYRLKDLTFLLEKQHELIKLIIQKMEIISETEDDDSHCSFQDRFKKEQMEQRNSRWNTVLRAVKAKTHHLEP

Row | SMILES | IC50 [1] [nM] | IC50 [2] [nM] | IC50 [3] [nM] | IC50 [4] [nM]
1 | O=c1c2cccnc2cnn1Cc1nc([C@@H]2CO[C@@H](c3ccc(Cl)cc3)C2)no1 [Example 24, 6-((3-((3R,5R)-5-(4-chlorophenyl)tetrahydro-furan-3-yl)-1,2,4-oxadiazol-5-yl)methyl)pyrido[2,3-d]pyridazin-5(6H)-one] | 4.9 | 7.2 |  | 
2 | Cc1cnn2ncn(Cc3nc([C@@H]4CO[C@@H](c5ccc(C#N)cc5)C4)no3)c(=O)c12 [Example 122, 4-((2R,4R)-4-(5-((5-methyl-4-oxopyrazolo[5,1-f][1,2,4]triazin-3(4H)-yl)methyl)-1,2,4-oxadiazol-3-yl)tetrahydrofuran-2-yl)benzonitrile] | 39 | 75.8 |  | 
3 | Nc1nc2ncccc2c(=O)n1Cc1nc([C@@H]2CO[C@@H](c3cccc(F)c3)C2)no1 [Example 119, 2-amino-3-((3-((3R,5R)-5-(3-fluorophenyl)tetrahydro-furan-3-yl)-1,2,4-oxadiazol-5-yl)methyl) pyrido[2,3-d]pyrimidin-4(3H)-one] | 13 | 31.9 |  | 
4 | Cn1cnc2ncn(Cc3nc([C@@H]4CO[C@@H](c5ccc(-c6ccccc6)cc5)C4)no3)c(=O)c21 [Example 30, 1-((3-((3R,5R)-5-[(1,1′-biphenyl]-4-yl)tetrahydrofuran-3-yl)-1,2,4-oxadiazol-5-yl)methyl)-7-methyl-1,7-dihydro-6H-purin-6-one] | 370 | 623 |  | 
5 | Nc1nc2ncsc2c(=O)n1Cc1nc([C@@H]2CO[C@@H](c3ccc(F)cc3)C2)no1 (racemic) [Example 154, 5-amino-6-[[3-[rac-(3R,5R)-5-(4-fluorophenyl)tetrahydro-furan-3-yl]-1,2,4-oxadiazol-5-yl]methyl]thiazolo[4,5-d]pyrimidin-7-one] |  |  |  | 2.3

More lines, now with the values ahead:

Row | IC50 [1] [nM] | IC50 [2] [nM] | IC50 [3] [nM] | IC50 [4] [nM] | SMILES
6 | 66 |  |  |  | NC(=O)c1ccc2c(=O)n(Cc3nc([C@@H]4CO[C@@H](c5ccc(Cl)cc5)C4)no3)cnc2n1 [Example 77, 3-((3-((3R,5R)-5-(4-chlorophenyl)tetrahydro-furan-3-yl)-1,2,4-oxadiazol-5-yl)methyl)-4-oxo-3,4-dihydropyrido[2,3-d] pyrimidine-7-carboxamide]
7 | 140 | 278 |  |  | Cn1cnc2ncn(Cc3nc([C@@H]4CO[C@@]5(Cc6ccccc65)C4)no3)c(=O)c21 [Example 43, 1-((3-((4′R,7R)-4′,5′-dihydro-3′H-spiro[bicyclo[4.2.0]octane-7,2′-furan]-1(6),2,4-trien-4′-yl)-1,2,4-oxadiazol-5-yl)methyl)-7-methyl-1,7-dihydro-6H-purin-6-one]
8 | 17 | 27.4 |  |  | Cn1cnc2ncn(Cc3nc([C@@H]4CO[C@@H](c5cccc(F)c5)C4)no3)c(=O)c21 [Example 10, 1-((3-((3R,5R)-5-(3-fluorophenyl)tetra-hydrofuran-3-yl)-1,2,4-oxadiazol-5-yl)methyl)-7-methyl-1,7-dihydro-6H-purin-6-one]
9 |  |  | 15.4 | 7.2 | O=c1ccn2c(=O)n(Cc3nc([C@@H]4CO[C@@H](c5ccc(Cl)cc5)C4)no3)ccc2n1 (racemic) [Example 99, 7-[[3-[rac-(3R,5R)-5-(4-chlorophenyl)tetrahydro-furan-3-yl]-1,2,4-oxadiazol-5-yl]methyl]pyrimido[1,6-a]pyrimidine-2,6-dione]
10 | 11 | 27.6 |  |  | Cn1cnc2ncn(Cc3nc([C@@H]4CO[C@@H](c5cc(F)c(F)c(F)c5)C4)no3)c(=O)c21 [Example 40, 7-methyl-1-((3-((3R,5R)-5-(3,4,5-trifluorophenyl)tetrahydrofuran-3-yl)-1,2,4-oxadiazol-5-yl)methyl)-1,7-dihydro-6H-purin-6-one]
11 |  |  | 137 | 67 | COc1ccc([C@H]2C[C@H](c3noc(Cn4cnc5ncn(C)c5c4=O)n3)CO2)cc1 [Example 65, 1-((3-((3R,5R)-5-(4-methoxyphenyl)tetrahydrofuran-3-yl)-1,2,4-oxadiazol-5-yl)methyl)-7-methyl-1,7-dihydro-6H-purin-6-one]
